Assay [1] concerns experimental muscular dystrophy in hamster. To be noted: cited from earlier work.
In assay [2] the test system is cellular calpains in C2C12 myoblasts. As to the kind of experiment: Calpain inhibition assay in C2C12 myoblasts. The assay is classed as cell-based. To be noted: 2 h incubation, calcium ionophore Br-A-23187, read-out: Calp I IC50 Myoblast. The method, boiled down: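 Confluent C2C12 myoblasts in fusion medium (DMEM, 5% horse serum) exposed to compound for 2 h at 37 °C, then loaded with 400 μM Suc-Leu-Tyr-AMC for 20 min at room temperature in buffer with 4 mM CaCl2, HEPES pH 7.25. Calpains activated by Br-A-23187 ionophore (20 μM in added buffer); AMC fluorescence read each minute for 60 min at 37 °C to derive IC50.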

For another assay, the system named is mdx mouse. Kind of assay: Longterm treatment of mdx mice (model for Duchenne Muscular Dystrophy). In kind it is in vivo. To be noted: 3 week old mice, treatment period of 4 weeks. How it is done:
The mdx mouse is a well established animal model for Duchenne Muscular Dystrophy (Bulfield G., Siller W. G., Wight P. A., Moore K. J., X chromosome-linked muscular dystrophy (mdx) in the mouse, Proc. Natl. Acad. Sci. USA., 1984, 81(4), 1189-1192). Selected compounds were tested in longterm treatments of mdx mice, according to the procedures described below.
Mouse strains: C57BL/10scsn and C57BL/10scsn mdx mouse strains were purchased at The Jackson Laboratory (ME, USA) and bred inhouse. Mouse males were sacrificed at the age of 3 or 7 weeks by CO2 asphyxiation.
Treatment: Compounds were dissolved in 50% PEG, 50% saline solution and applied by i.p. injection.
Histology: Tibialis anterior (TA) and diaphragm (Dia) muscles were collected and mounted on cork supports using gum tragacanth (Sigma-Aldrich, Germany). The samples were snap-frozen in melting isopentane and stored at −80° C. 12 μm thick cryosections of the mid-belly region of muscles were prepared. For staining, sections were air dried and fixed with 4% PFA in PBS for 5 minutes, washed 3 times with PBS and incubated over night at 4° C. in PBS containing 2 μg/ml Alexa Fluor™ 488 conjugated wheat-germ agglutinin (WGA-Alexa, Molecular Probes, Eugen, Oreg., USA) to stain membrane-bound and extracellular epitopes and 1 μg/ml 4′,6-diamidino-2-phenylindole (DAPI; Molecular Probes) to stain nuclei.
Image acquisition and analysis: Fluorescence microscopy images of both labels were acquired using a digital camera (ColorView II, Soft Imaging System, Munster, Germany) coupled to a fluorescence microscope (Vanox S, Olympus, Tokyo, Japan). Combination of these two stainings to a composite image, assembling of several images to a complete image of the entire muscle cross-section and further semi-automated analysis was performed using the image analysis program AnalySIS (Soft Imaging System). Image analysis of 1200-2900 muscle fibers in each section was performed in three steps: 1) determination of the muscle fiber boundaries, 2) determination of the muscle fiber size, and 3) determination of the percentage of muscle fibers containing centralized nuclei. Six different geometrical parameters were tested for the determination of the muscle fiber size: (a) the “minimal feret” (the minimum distance of parallel tangents at opposing borders of the muscle fiber), (b) the “area”, (c) the “minimal inner diameter” (the minimum diameter through the center of the muscle fiber), (d) the “minimal diameter” (the minimum diameter of a muscle fiber for angles in the range 0° through 179° with step width 1°, (e) the “minimal outer diameter” (the minimum diameter through the muscle fiber from outer border to outer border), and (f) the “perimeter”. The variance coefficient of the muscle fiber size is defined as follows: variance coefficient=(standard deviation of the muscle fiber size/mean of the muscle fiber size of the section)*1000. For statistical analysis of different variance coefficient values Mann-Whitney U test was used.
Selected Examples of the present invention were active in the mdx mouse model at 10 mg/kg/day, using 3 week old mice and a treatment period of 4 weeks (N=5−10).

A further assay concerns the target T1, 20S Proteasome (Oryctolagus cuniculus, UniProt G1T4Q9).
T1 sequence (G1T4Q9 1-263): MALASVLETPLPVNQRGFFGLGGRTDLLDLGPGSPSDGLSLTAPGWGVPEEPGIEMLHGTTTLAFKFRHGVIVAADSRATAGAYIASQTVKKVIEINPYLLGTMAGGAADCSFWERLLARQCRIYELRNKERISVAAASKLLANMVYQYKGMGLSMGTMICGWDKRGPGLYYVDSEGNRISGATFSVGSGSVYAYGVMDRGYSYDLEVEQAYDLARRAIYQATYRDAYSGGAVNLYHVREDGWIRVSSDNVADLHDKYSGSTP
As to the kind of experiment: 20S Proteasome assay. In kind it is biochemical, Rabbit. To be noted: substrate Suc-Leu-Leu-Val-Tyr-AMC; read-out: 20S Prot IC50. How it is done: 25 μl of a reaction buffer containing 400 μM of the fluorogenic substrate Suc-Leu-Leu-Val-Tyr-AMC (Bachem) are dispensed per well of a white microtiter plate. Test compounds dissolved in 0.5 μl DMSO are added. To start the reaction; 25 μl of reaction buffer containing 35 ng of enzyme (20S Proteasome, Rabbit, Calbiochem) are added. The increase in fluorescence (excitation at 360 nm; emission at 440 nm) is measured over 30 min at 30° C. at 30″. The IC50's are then determined from the slopes.

For assay [3], the system named is Primary fibroblasts from donors with Friedreich Ataxia (FRDA). As to the kind of experiment: BSO assay (cell viability under BSO-induced oxidative stress). The assay is classed as cell-based, human. To be noted: 24 h preincubation, 1 mM BSO. The essentials:
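FRDA patient primary fibroblasts were pretreated with compounds for 24 h, then exposed to 1 mM BSO (final) until toxicity appeared in BSO-only controls (typically 16–48 h). Viability was read by calcein AM (1.2 μM)/ethidium homodimer (4 μM) staining, 60 min RT, fluorescence 485/525 nm.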

In another assay the target is T2, human μ-calpain (Homo sapiens, UniProt P07384).
T2 construct: purchased Calbiochem
T2 sequence (P07384 1-714): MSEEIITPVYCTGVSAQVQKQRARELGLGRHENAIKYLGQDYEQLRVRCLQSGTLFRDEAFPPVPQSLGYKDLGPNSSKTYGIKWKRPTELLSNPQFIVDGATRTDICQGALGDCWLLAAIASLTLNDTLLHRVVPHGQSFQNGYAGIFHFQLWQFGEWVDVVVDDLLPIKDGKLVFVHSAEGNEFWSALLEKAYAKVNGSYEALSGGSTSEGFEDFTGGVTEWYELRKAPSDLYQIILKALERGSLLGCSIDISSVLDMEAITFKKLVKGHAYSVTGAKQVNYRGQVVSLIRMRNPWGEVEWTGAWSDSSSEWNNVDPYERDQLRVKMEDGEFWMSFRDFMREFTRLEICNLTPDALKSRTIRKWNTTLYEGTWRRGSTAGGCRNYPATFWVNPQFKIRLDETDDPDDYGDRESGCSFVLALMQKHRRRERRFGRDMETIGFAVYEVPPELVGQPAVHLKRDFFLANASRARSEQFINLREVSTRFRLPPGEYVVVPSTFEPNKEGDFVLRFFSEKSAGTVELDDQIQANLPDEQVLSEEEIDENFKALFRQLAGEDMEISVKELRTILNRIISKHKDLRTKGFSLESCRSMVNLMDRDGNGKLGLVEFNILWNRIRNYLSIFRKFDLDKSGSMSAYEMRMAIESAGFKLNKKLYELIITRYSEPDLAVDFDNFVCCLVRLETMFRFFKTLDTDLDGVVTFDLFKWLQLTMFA
T2 sequence (P04632 1-268 partner): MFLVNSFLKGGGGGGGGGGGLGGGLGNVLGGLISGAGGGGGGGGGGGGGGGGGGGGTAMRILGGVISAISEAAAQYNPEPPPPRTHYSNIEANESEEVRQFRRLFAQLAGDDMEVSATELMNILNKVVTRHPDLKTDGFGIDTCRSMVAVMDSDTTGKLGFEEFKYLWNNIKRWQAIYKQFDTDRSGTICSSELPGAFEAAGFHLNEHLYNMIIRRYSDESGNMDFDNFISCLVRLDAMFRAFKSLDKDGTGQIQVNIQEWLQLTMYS
Kind of assay: Enzymatic calpain inhibition assay. In kind it is biochemical. The following applies: substrate Suc-Leu-Tyr-AMC, read-out: Calp I IC50. The method, boiled down: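 Human μ-calpain (0.5 μg) with 250 μM Suc-Leu-Tyr-AMC in 100 mM imidazole pH 7.5, 5 mM cysteine, 5 mM CaCl2. AMC fluorescence (ex 360/em 440 nm) followed 30 min at 30 °C; IC50 determined graphically from initial velocities versus inhibitor concentration.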

The term IC50 denotes the concentration needed to halve the response being measured. The EC50 is the concentration that produces a half-maximal response. Read a high EC50 as a need for much substance.

For the compound `CCOC(=O)[C@H]1O[C@@H]1C(=O)N[C@@H](CC(C)C)C(=O)NCCC(C)C` [Example E-64-d], the life-prolonging effect entry in assay [1] is reported as “life-prolonging effect”.
For “Z-Val-Phe-H [MDL-28170, reference compound]”, the results for the IC50 (in assay [2]; at 20S Proteasome) were 40000 nM and over 1000 nM, respectively. The “activity in the mdx mouse model” value in the assay with mdx mouse is given as “did not show statistically significant activity”.
For the compound `CCNC(=O)C(=O)[C@H](Cc1ccc(Br)cc1)NC(=O)[C@H](CC(C)C)NC(=O)CCCCC1SC[C@@H]2NC(=O)N[C@H]12` (stereo partly drawn) [Example 164], the IC50 in assay [2] is 2000 nM; at human μ-calpain, 20 nM; on 20S Proteasome, over 1000 nM. Also, the “BSO EC50” value in assay [3] is “inactive”.
As to `CCNC(=O)C(=O)[C@H](Cc1ccc(Br)cc1)NC(=O)[C@H](CC(C)C)NC(=O)CCCCC1CCS[S+]1[O-]` (stereo partly drawn) [Example 65], the IC50 in assay [2] worked out at 1500 nM; at human μ-calpain it was 15 nM; on 20S Proteasome, 400 nM. In assay [3] (Homo sapiens, Fibroblast), this compound yielded an EC50 of 1000 nM.

Values taken from patent US20060258598A1, “Alpha-keto carbonyl calpain inhibitors” (priority 2003, published 2006).
